What was measured:
Type in all cases: in vivo
[1] = system: wheat (TRZAW, Triticum aestivum); assay: Test H post-emergence, alone and in combination: wheat
Description: (§1) Seeds of plant species selected from wheat (TRZAW, Triticum aestivum), barley (HORBW, Hordeum vulgare), Kochia (KCHSC, Kochia caoparia) blackgrass (ALOMY, Alopecurus myosuroides), canarygrass (PHAMI, Phalaris minor), Italian ryegrass (LOLMU, Lolium multiflorum) common lambsquarter (CHEAL, Chenopodium album), pigweed (AMARE, Amaranthus retroflexus), Common Chickweed (STEME, Stellaria media), Russian thistle (SASKR, Salsola iberica), Wild Buckwheat (POLCO, Polygonum convolvulus), Catchweed Bedstraw (GALAP, Galium aparine), Mustard (SINAR, Sinapisar arvensis), Henbit Deadnettle (LAMAM, Lamium amplexicaule), Wild Radish (RAPRA, Raphanus raphanistrum), Field Poppy (PAPRH, Papaver rhoeas), Field Violet (VIOAR, Viola arvennsis), Scentless Chamomile (MATIN Matricaria inodora) were planted into soil and treated post-emergence with test chemicals formulated in a non-phytotoxic solvent mixture. Plants were grown in a greenhouse using supplemental lighting to maintain a photoperiod of approximately 14 hours; daytime and nighttime temperatures were approximately 23°-29° and 16°-19° Celsius, respectively. Balanced fertilizer was applied through the watering system. Treated plants and controls were maintained in a greenhouse for 20 days, after which time all species were compared to controls and visually evaluated. Plant response ratings were calculated as the mean of three replicates (unless otherwise indicated), are summarized in Table G, and are based on a scale of 0 to 100 where 0 is no effect and 100 is complete control. A dash (-) response means no test result.

[2] = system: barley (HORBW, Hordeum vulgare); assay: Test H post-emergence, alone and in combination: barley
Description: as §1

[3] = system: Kochia (KCHSC, Kochia caoparia); assay: Test H post-emergence, alone and in combination: Kochia
Description: as §1

[4] = system: blackgrass (ALOMY, Alopecurus myosuroides); assay: Test H post-emergence, alone and in combination: blackgrass
Description: as §1

[5] = system: canarygrass (PHAMI, Phalaris minor); assay: Test H post-emergence, alone and in combination: canarygrass
Description: as §1

[6] = system: Italian ryegrass (LOLMU, Lolium multiflorum); assay: Test H post-emergence, alone and in combination: Italian ryegrass
Description: as §1

[7] = system: common lambsquarter (CHEAL, Chenopodium album); assay: Test H post-emergence, alone and in combination: common lambsquarter
Description: as §1

[8] = system: pigweed (AMARE, Amaranthus retroflexus); assay: Test H post-emergence, alone and in combination: pigweed
Description: as §1

[9] = system: Common Chickweed (STEME, Stellaria media); assay: Test H post-emergence, alone and in combination: Common Chickweed
Description: as §1

[10] = system: Russian thistle (SASKR, Salsola iberica); assay: Test H post-emergence, alone and in combination: Russian thistle
Description: as §1

[11] = system: Wild Buckwheat (POLCO, Polygonum convolvulus); assay: Test H post-emergence, alone and in combination: Wild Buckwheat
Description: as §1

[12] = system: Catchweed Bedstraw (GALAP, Galium aparine); assay: Test H post-emergence, alone and in combination: Catchweed Bedstraw
Description: as §1

[13] = system: Mustard (SINAR, Sinapisar arvensis); assay: Test H post-emergence, alone and in combination: Mustard
Description: as §1

[14] = system: Henbit Deadnettle (LAMAM, Lamium amplexicaule); assay: Test H post-emergence, alone and in combination: Henbit Deadnettle
Description: as §1

[15] = system: Wild Radish (RAPRA, Raphanus raphanistrum); assay: Test H post-emergence, alone and in combination: Wild Radish
Description: as §1

[16] = system: Field Poppy (PAPRH, Papaver rhoeas); assay: Test H post-emergence, alone and in combination: Field Poppy
Description: as §1

[17] = system: Field Violet (VIOAR, Viola arvennsis); assay: Test H post-emergence, alone and in combination: Field Violet
Description: as §1

[18] = system: Scentless Chamomile (MATIN Matricaria inodora); assay: Test H post-emergence, alone and in combination: Scentless Chamomile
Description: as §1

[19] = system: japonica rice (ORYSP, Oryza sativa); assay: Test G paddy, alone and in combination: japonica rice; settings: Rate 125 g/ha; evaluated after 14 days
Experimental: (§2) Seeds of smallflower umbrella sedge (CYPDI, Cyperus difformis) and ducksalad (HETLI, Heteranthera limosa) were sown on the soil surface in two separate quadrants of 11 cm tubs filled with steam pasteurized Tama soil. Simultaneously, plantings of barnyardgrass (ECHCG, Echinochloa crus-galli) and japonica rice (ORYSP, Oryza sativa) were established in separate “plug” flats. Plants were grown in a greenhouse using supplemental lighting to maintain a photoperiod of approximately 16 h; daytime and nighttime temperatures were approximately 27-30° C. and 19-22° C., respectively. After 8 days, barnyardgrass plants were transplanted to one of the remaining quadrants of the tub, and the water level was adjusted to a final depth of 3 cm. Herbicide application timing was targeted at the 2.0 to 2.5 leaf stage and the plants were treated with test chemicals formulated in a non-phytotoxic solvent. Treated plants and controls were maintained in a greenhouse for 14 days, after which time all species were compared to controls and visually evaluated. Plant response ratings are summarized in Tables G1 through G3, and are based on a scale of 0 to 100 where 0 is no effect and 100 is complete control. A dash (-) response means no test result.

[20] = system: barnyardgrass (ECHCG, Echinochloa crus-galli); assay: Test G paddy, alone and in combination: barnyardgrass; settings: Rate 125 g/ha; evaluated after 14 days
Experimental: as §2

[21] = system: smallflower umbrella sedge (CYPDI, Cyperus difformis); assay: Test G paddy, alone and in combination: smallflower umbrella sedge; settings: Rate 125 g/ha; evaluated after 14 days
Experimental: as §2

[22] = system: ducksalad (HETLI, Heteranthera limosa); assay: Test G paddy, alone and in combination: ducksalad; settings: Rate 125 g/ha; evaluated after 14 days
Experimental: as §2

Structure (SMILES): COC(=O)c1sccc1S(=O)(=O)NC(=O)Nc1nc(C)nc(OC)n1 [b2c, thifensulfuron-methyl]
- TRZAW plant response ([1]; Rate 8): 0
- TRZAW plant response ([1]; Rate 16): 0
- TRZAW plant response ([1]; Rate 31): 0
- TRZAW plant response ([1]; Rate 62): 5
- HORBW plant response ([2]; Rate 8): 0
- HORBW plant response ([2]; Rate 16): 5
- HORBW plant response ([2]; Rate 31): 5
- HORBW plant response ([2]; Rate 62): 5
- KCHSC plant response ([3]; Rate 8): 70
- KCHSC plant response ([3]; Rate 16): 85
- KCHSC plant response ([3]; Rate 31): 95
- KCHSC plant response ([3]; Rate 62): 100
- ALOMY plant response ([4]; Rate 8): 10
- ALOMY plant response ([4]; Rate 16): 45
- ALOMY plant response ([4]; Rate 31): 60
- ALOMY plant response ([4]; Rate 62): 65
- PHAMI plant response ([5]; Rate 8): 10
- PHAMI plant response ([5]; Rate 16): 60
- PHAMI plant response ([5]; Rate 31): 70
- PHAMI plant response ([5]; Rate 62): 90
- LOLMU plant response ([6]; Rate 8): 20
- LOLMU plant response ([6]; Rate 16): 50
- LOLMU plant response ([6]; Rate 31): 70
- LOLMU plant response ([6]; Rate 62): 90
- CHEAL plant response ([7]; Rate 8): 85
- CHEAL plant response ([7]; Rate 16): 70
- CHEAL plant response ([7]; Rate 31): 100
- CHEAL plant response ([7]; Rate 62): 95
- AMARI plant response ([8]; Rate 8): 100
- AMARI plant response ([8]; Rate 16): 100
- AMARI plant response ([8]; Rate 31): 100
- AMARI plant response ([8]; Rate 62): 100
- STEME plant response ([9]; Rate 8): 85
- STEME plant response ([9]; Rate 16): 100
- STEME plant response ([9]; Rate 31): 100
- STEME plant response ([9]; Rate 62): 100
- SASKR plant response ([10]; Rate 8): 100
- SASKR plant response ([10]; Rate 16): 100
- SASKR plant response ([10]; Rate 31): 100
- SASKR plant response ([10]; Rate 62): 100
- POLCO plant response ([11]; Rate 8): 95
- POLCO plant response ([11]; Rate 16): 95
- POLCO plant response ([11]; Rate 31): 95
- POLCO plant response ([11]; Rate 62): 95
- GALAP plant response ([12]; Rate 8): 80
- GALAP plant response ([12]; Rate 16): 90
- GALAP plant response ([12]; Rate 31): 75
- GALAP plant response ([12]; Rate 62): 95
- SINAR plant response ([13]; Rate 8): 80
- SINAR plant response ([13]; Rate 16): 90
- SINAR plant response ([13]; Rate 31): 85
- SINAR plant response ([13]; Rate 62): 95
- LAMAM plant response ([14]; Rate 8): 60
- LAMAM plant response ([14]; Rate 16): 70
- LAMAM plant response ([14]; Rate 31): 75
- LAMAM plant response ([14]; Rate 62): 75
- RAPRA plant response ([15]; Rate 8): 95
- RAPRA plant response ([15]; Rate 16): 75
- RAPRA plant response ([15]; Rate 31): 100
- RAPRA plant response ([15]; Rate 62): 95
- PAPRH plant response ([16]; Rate 8): 70
- PAPRH plant response ([16]; Rate 16): 75
- PAPRH plant response ([16]; Rate 31): 100
- PAPRH plant response ([16]; Rate 62): 100
- VIOAR plant response ([17]; Rate 8): 80
- VIOAR plant response ([17]; Rate 16): 85
- VIOAR plant response ([17]; Rate 31): 75
- VIOAR plant response ([17]; Rate 62): 95
- MATIN plant response ([18]; Rate 8): 95
- MATIN plant response ([18]; Rate 16): 90
- MATIN plant response ([18]; Rate 31): 100
- MATIN plant response ([18]; Rate 62): 100

Structure (SMILES): COCCCn1c(-c2cccc(OC)c2)ncc(C(=O)C2=C(O)CCCC2=O)c1=O [b12a, 5-[(2-hydroxy-6-oxo-1-cyclohexen-1-yl)carbonyl]-2-(3-methoxyphenyl)-3-(3-methoxypropyl)-4(3H)-pyrimidinone]
- ORYSP plant response rating (scale of 0 to 100) [19]: 5
- ECHCG plant response rating (scale of 0 to 100) [20]: 35
- CYPDI plant response rating (scale of 0 to 100) [21]: 80
- HETLI plant response rating (scale of 0 to 100) [22]: 80

— patent US9302999B2, “Substituted triazoles as herbicides” (E. I. DU PONT DE NEMOURS AND COMPANY, priority 2012, dated 2016)
